Laboratory results from US9873709B2 (priority 2013, dated 2018).

test system: JAK1-dependent STAT6 phosphorylation downstream of IL-13 stimulation in TF-1 human erythroleukemia cells; assay: cells; settings: TF-1, read-out: IL-13-pSTAT6 IC50

| IC50 | SMILES |
| --- | --- |
| 275 nM | NCC1CCN(C(=O)c2ccc(Nc3nc4c(C5=CCN(C(=O)CCC(F)(F)F)CC5)cccn4n3)cc2)C1 (centres unmarked) [Example 2-447, 1-[4-[2-[4-[3-(aminomethyl)pyrrolidine-1-carbonyl]anilino]-[1,2,4]triazolo[1,5-a]pyridin-8-yl]-3,6-dihydro-2H-pyridin-1-yl]-4,4,4-trifluoro-butan-1-one] |
| 120 nM | O=C(CCC(F)(F)F)N1CC=C(c2cccn3nc(Nc4ccc(C(=O)N5CCO[C@@H]6CNC[C@H]65)cc4)nc23)CC1 [Example 2-448, 1-[4-[2-[4-[(4aR,7aR)-3,4a,5,6,7,7a-hexahydro-2H-pyrrolo[3,4-b][1,4]oxazine-4-carbonyl]anilino]-[1,2,4]triazolo[1,5-a]pyridin-8-yl]-3,6-dihydro-2H-pyridin-1-yl]-4,4,4-trifluoro-butan-1-one] |
| 355 nM | O=C(CCC(F)(F)F)N1CC=C(c2cccn3nc(Nc4ccc(C(=O)N5C[C@H]6CN[C@H]6C5)cc4)nc23)CC1 [Example 2-449, 1-[4-[2-[4-[(1R,5R)-3,6-diazabicyclo[3.2.0]heptane-3-carbonyl]anilino]-[1,2,4]triazolo[1,5-a]pyridin-8-yl]-3,6-dihydro-2H-pyridin-1-yl]-4,4,4-trifluoro-butan-1-one] |
| 115 nM | O=C(CCC(F)(F)F)N1CC=C(c2cccn3nc(Nc4ccc(C(=O)N5CCCCC56CCNCC6)cc4)nc23)CC1 [Example 2-450, 1-[4-[2-[4-(1,9-diazaspiro[5.5]undecane-1-carbonyl)anilino]-[1,2,4]triazolo[1,5-a]pyridin-8-yl]-3,6-dihydro-2H-pyridin-1-yl]-4,4,4-trifluoro-butan-1-one] |
| 287 nM | CN(C(=O)c1ccc(Nc2nc3c(C4=CCN(C(=O)CCC(F)(F)F)CC4)cccn3n2)cc1)C1CNC1 [Example 2-451] |
| 134 nM | NCC12CC(CN1C(=O)c1ccc(Nc3nc4c(C5=CCN(C(=O)CCC(F)(F)F)CC5)cccn4n3)cc1)C2 [Example 2-452, 1-[4-[2-[4-[4-(aminomethyl)-3-azabicyclo[2.1.1]hexane-3-carbonyl]anilino]-[1,2,4]triazolo[1,5-a]pyridin-8-yl]-3,6-dihydro-2H-pyridin-1-yl]-4,4,4-trifluoro-butan-1-one] |
| 171 nM | O=C(CCC(F)(F)F)N1CC=C(c2cccn3nc(Nc4ccc(C(=O)N5CCOC6CCNCC65)cc4)nc23)CC1 (centres unmarked) [Example 2-453, 1-[4-[2-[4-(2,3,4a,5,6,7,8,8a-octahydropyrido[4,3-b][1,4]oxazine-4-carbonyl)anilino]-[1,2,4]triazolo[1,5-a]pyridin-8-yl]-3,6-dihydro-2H-pyridin-1-yl]-4,4,4-trifluoro-butan-1one] |
| 87.9 nM | O=C(N[C@H]1[C@@H]2CNC[C@@H]21)c1ccc(Nc2nc3c(C4=CCN(C(=O)CCC(F)(F)F)CC4)cccn3n2)cc1 [Example 2-454, N-[(1R,5S)-3-azabicyclo[3.1.0]hexan-6-yl]-4-[[8-[1-(4,4,4-trifluorobutanoyl)-3,6-dihydro-2H-pyridin-4-yl]-[1,2,4]triazolo[1,5-a]pyridin-2-yl]amino]benzamide] |
| 5.5 nM | O=C(NCCN1CCCCC1)c1ccc(Nc2nc3c(C4=CCN(C(=O)CCC(F)(F)F)CC4)cccn3n2)cc1 [Example 2-455, N-[2-(1-piperidyl)ethyl]-4-[[8-[1-(4,4,4-trifluorobutanoyl)-3,6-dihydro-2H-pyridin-4-yl]-[1,2,4]triazolo[1,5-a]pyridin-2-yl]amino]benzamide] |
| 7.5 nM | O=C(CCC(F)(F)F)N1CC=C(c2cccn3nc(Nc4ccc(C(=O)N5CCC(c6ccncc6)CC5)cc4)nc23)CC1 [Example 2-456, 4,4,4-trifluoro-1-[4-[2-[4-[4-(4-pyridyl)piperidine-1-carbonyl]anilino]-[1,2,4]triazolo[1,5-a]pyridin-8-yl]-3,6-dihydro-2H-pyridin-1-yl]butan-1-one] |
| 20.5 nM | CN1CCC(NC(=O)c2ccc(Nc3nc4c(C5=CCN(C(=O)CCC(F)(F)F)CC5)cccn4n3)cc2)C1 (centres unmarked) [Example 2-459, N-(1-methylpyrrolidin-3-yl)-4-[[8-[1-(4,4,4-trifluorobutanoyl)-3,6-dihydro-2H-pyridin-4-yl]-[1,2,4]triazolo[1,5-a]pyridin-2-yl]amino]benzamide] |
| 27.6 nM | CN(Cc1ccc2ncccc2c1)C(=O)c1ccc(Nc2nc3c(C4=CCN(C(=O)CCC(F)(F)F)CC4)cccn3n2)cc1 [Example 2-460, N-methyl-N-(6-quinolylmethyl)-4-[[8-[1-(4,4,4-trifluorobutanoyl)-3,6-dihydro-2H-pyridin-4-yl]-[1,2,4]triazolo[1,5-a]pyridin-2-yl]amino]benzamide] |
| 6.1 nM | CC1CCCN(C2CCN(C(=O)c3ccc(Nc4nc5c(C6=CCN(C(=O)CCC(F)(F)F)CC6)cccn5n4)cc3)CC2)C1 (centres unmarked) [Example 2-461, 4,4,4-trifluoro-1-[4-[2-[4-[4-(3-methyl-1-piperidyl)piperidine-1-carbonyl]anilino]-[1,2,4]triazolo[1,5-a]pyridin-8-yl]-3,6-dihydro-2H-pyridin-1-yl]butan-1-one] |
| 44.4 nM | O=C(CCC(F)(F)F)N1CC=C(c2cccn3nc(Nc4ccc(C(=O)N5CCN(CCn6ccnc6)CC5)cc4)nc23)CC1 [Example 2-462, 4,4,4-trifluoro-1-[4-[2-[4-[4-(2-imidazol-1-ylethyl)piperazine-1-carbonyl]anilino]-[1,2,4]triazolo[1,5-a]pyridin-8-yl]-3,6-dihydro-2H-pyridin-1-yl]butan-1-one] |
| 26 nM | CC(C)N1CCC(CN(C)C(=O)c2ccc(Nc3nc4c(C5=CCN(C(=O)CCC(F)(F)F)CC5)cccn4n3)cc2)C1 (centres unmarked) [Example 2-463, N-[(1-isopropylpyrrolidin-3-yl)methyl]-N-methyl-4-[[8-[1-(4,4,4-trifluorobutanoyl)-3,6-dihydro-2H-pyridin-4-yl]-[1,2,4]triazolo[1,5-a]pyridin-2-yl]amino]benzamide] |
| 9.1 nM | CN(C)C1CCN(C(=O)c2ccc(Nc3nc4c(C5=CCN(C(=O)CCC(F)(F)F)CC5)cccn4n3)cc2)C1 (centres unmarked) [Example 2-464, 1-[4-[2-[4-[3-(dimethylamino)pyrrolidine-1-carbonyl]anilino]-[1,2,4]triazolo[1,5-a]pyridin-8-yl]-3,6-dihydro-2H-pyridin-1-yl]-4,4,4-trifluoro-butan-1-one] |
| 9.4 nM | O=C(NCCN1CCOCC1)c1ccc(Nc2nc3c(C4=CCN(C(=O)CCC(F)(F)F)CC4)cccn3n2)cc1 [Example 2-465, N-(2-morpholinoethyl)-4-[[8-[1-(4,4,4-trifluorobutanoyl)-3,6-dihydro-2H-pyridin-4-yl]-[1,2,4]triazolo[1,5-a]pyridin-2-yl]amino]benzamide] |
| 17.9 nM | O=C(NCCN1CCCC1)c1ccc(Nc2nc3c(C4=CCN(C(=O)CCC(F)(F)F)CC4)cccn3n2)cc1 [Example 2-466, N-(2-pyrrolidin-1-ylethyl)-4-[[8-[1-(4,4,4-trifluorobutanoyl)-3,6-dihydro-2H-pyridin-4-yl]-[1,2,4]triazolo[1,5-a]pyridin-2-yl]amino]benzamide] |
| 20.9 nM | CN1CCC(CNC(=O)c2ccc(Nc3nc4c(C5=CCN(C(=O)CCC(F)(F)F)CC5)cccn4n3)cc2)CC1 [Example 2-467, N-[(1-methyl-4-piperidyl)methyl]-4-[[8-[1-(4,4,4-trifluorobutanoyl)-3,6-dihydro-2H-pyridin-4-yl]-[1,2,4]triazolo[1,5-a]pyridin-2-yl]amino]benzamide] |
| 12.8 nM | Cc1cccc(C2CCN(C(=O)c3ccc(Nc4nc5c(C6=CCN(C(=O)CCC(F)(F)F)CC6)cccn5n4)cc3)CC2)n1 [Example 2-468, 4,4,4-trifluoro-1-[4-[2-[4-[4-(6-methyl-2-pyridyl)piperidine-1-carbonyl]anilino]-[1,2,4]triazolo[1,5-a]pyridin-8-yl]-3,6-dihydro-2H-pyridin-1-yl]butan-1-one] |
| 13 nM | CNC(=O)C1CN(C(=O)c2ccc(Nc3nc4c(C5=CCN(C(=O)CCC(F)(F)F)CC5)cccn4n3)cc2)CCN1CCc1ccccc1 (centres unmarked) [Example 2-470, N-methyl-1-(2-phenylethyl)-4-[4-[[8-[1-(4,4,4-trifluorobutanoyl)-3,6-dihydro-2H-pyridin-4-yl]-[1,2,4]triazolo[1,5-a]pyridin-2-yl]amino]benzoyl] piperazine-2-carboxamide] |
| 6.4 nM | O=C(CCC(F)(F)F)N1CC=C(c2cccn3nc(Nc4ccc(C(=O)N5CCC(Cc6ccccn6)C5)cc4)nc23)CC1 (centres unmarked) [Example 2-471, 4,4,4-trifluoro-1-[4-[2-[4-[3-(2-pyridylmethyl)pyrrolidine-1-carbonyl]anilino]-[1,2,4]triazolo[1,5-a]pyridin-8-yl]-3,6-dihydro-2H-pyridin-1-yl]butan-1-one] |
| 67.9 nM | CN(Cc1ccccc1)C1CCCN(C(=O)c2ccc(Nc3nc4c(C5=CCN(C(=O)CCC(F)(F)F)CC5)cccn4n3)cc2)C1 (centres unmarked) [Example 2-472, 1-[4-[2-[4-[3-[benzyl(methyl)amino]piperidine-1-carbonyl]anilino]-[1,2,4]triazolo[1,5-a]pyridin-8-yl]-3,6-dihydro-2H-pyridin-1-yl]-4,4,4-trifluoro-butan-1-one] |
| 48.1 nM | CN(C(=O)c1ccc(Nc2nc3c(C4=CCN(C(=O)CCC(F)(F)F)CC4)cccn3n2)cc1)C1CCN(Cc2ccccc2)C1 (centres unmarked) [Example 2-473, N-(1-benzylpyrrolidin-3-yl)-N-methyl-4-[[8-[1-(4,4,4-trifluorobutanoyl)-3,6-dihydro-2H-pyridin-4-yl]-[1,2,4]triazolo[1,5-a]pyridin-2-yl]amino]benzamide] |

| SMILES | IC50 |
| --- | --- |
| CN1C2COCC1CN(C(=O)c1ccc(Nc3nc4c(C5=CCN(C(=O)CCC(F)(F)F)CC5)cccn4n3)cc1)C2 [Example 2-458, 4,4,4-trifluoro-1-[4-[2-[4-(9-methyl-3-oxa-7,9-diazabicyclo[3.3.1]nonane-7-carbonyl)anilino]-[1,2,4]triazolo[1,5-a]pyridin-8-yl]-3,6-dihydro-2H-pyridin-1-yl]butan-1-one] | 45.9 nM |
| O=C(N[C@H]1CN2CCC1CC2)c1ccc(Nc2nc3c(C4=CCN(C(=O)CCC(F)(F)F)CC4)cccn3n2)cc1 [Example 2-469, N-[(3R)-quinuclidin-3-yl]-4-[[8-[1-(4,4,4-trifluorobutanoyl)-3,6-dihydro-2H-pyridin-4-yl]-[1,2,4]triazolo[1,5-a]pyridin-2-yl]amino]benzamide] | 83.8 nM |
